# Laboratory results taken from patent publication US10189853B2, “Conformationally restricted 4-substituted-2,6-dimethylfuro[2,3-d]pyrimidines as anti-tumor agents” (DUQUESNE UNIVERSITY OF THE HOLY SPIRIT, priority 2014, dated 2019).
# Like-named read-outs stand apart in the source and are kept apart here.
# Legend:
# [1] = tested on: chicken embryo chorioallantoic membrane; assay: Chorioallantoic membrane (CAM) assay of angiogenesis; conditions: Gallus gallus, 48 h, read-out: CAM angiogenesis inhibition
# [2] = tested on: cellular microtubules in A-10 cells; assay: Microtubule depolymerization, indirect immunofluorescence; assay type: cell-based; conditions: for EC50: A-10 cells, 18 h, read-out: EC50 for MT depolymerization in A-10 cells; for effect on cellular microtubules: in words
# Experimental: Evaluation of microtubule inhibition was performed using previously described methods.^22 Indirect immunofluorescence was used to evaluate the effects of the compounds on cellular microtubules as described previously.^38 Briefly, A-10 cells were treated for 18 h with vehicle (DMSO) or a compound, and microtubule effects were evaluated microscopically using β-tubulin antibody. The EC50 was calculated from 3 independent experiments and expressed as the mean±SD.
# A431 cancer cells = assay: A431 cytotoxicity (cell proliferation); assay type: cell-based, human; conditions: Homo sapiens, A-431
# PDGFR-β = PDGFR-β (Homo sapiens (Human), UniProt P09619); assay: PDGFR-β kinase inhibition, phosphotyrosine ELISA cytoblot; assay type: cell-based; conditions: SH-SY5Y cells, phosphotyrosine ELISA
# Chain of PDGFR-β (P09619 33-1106): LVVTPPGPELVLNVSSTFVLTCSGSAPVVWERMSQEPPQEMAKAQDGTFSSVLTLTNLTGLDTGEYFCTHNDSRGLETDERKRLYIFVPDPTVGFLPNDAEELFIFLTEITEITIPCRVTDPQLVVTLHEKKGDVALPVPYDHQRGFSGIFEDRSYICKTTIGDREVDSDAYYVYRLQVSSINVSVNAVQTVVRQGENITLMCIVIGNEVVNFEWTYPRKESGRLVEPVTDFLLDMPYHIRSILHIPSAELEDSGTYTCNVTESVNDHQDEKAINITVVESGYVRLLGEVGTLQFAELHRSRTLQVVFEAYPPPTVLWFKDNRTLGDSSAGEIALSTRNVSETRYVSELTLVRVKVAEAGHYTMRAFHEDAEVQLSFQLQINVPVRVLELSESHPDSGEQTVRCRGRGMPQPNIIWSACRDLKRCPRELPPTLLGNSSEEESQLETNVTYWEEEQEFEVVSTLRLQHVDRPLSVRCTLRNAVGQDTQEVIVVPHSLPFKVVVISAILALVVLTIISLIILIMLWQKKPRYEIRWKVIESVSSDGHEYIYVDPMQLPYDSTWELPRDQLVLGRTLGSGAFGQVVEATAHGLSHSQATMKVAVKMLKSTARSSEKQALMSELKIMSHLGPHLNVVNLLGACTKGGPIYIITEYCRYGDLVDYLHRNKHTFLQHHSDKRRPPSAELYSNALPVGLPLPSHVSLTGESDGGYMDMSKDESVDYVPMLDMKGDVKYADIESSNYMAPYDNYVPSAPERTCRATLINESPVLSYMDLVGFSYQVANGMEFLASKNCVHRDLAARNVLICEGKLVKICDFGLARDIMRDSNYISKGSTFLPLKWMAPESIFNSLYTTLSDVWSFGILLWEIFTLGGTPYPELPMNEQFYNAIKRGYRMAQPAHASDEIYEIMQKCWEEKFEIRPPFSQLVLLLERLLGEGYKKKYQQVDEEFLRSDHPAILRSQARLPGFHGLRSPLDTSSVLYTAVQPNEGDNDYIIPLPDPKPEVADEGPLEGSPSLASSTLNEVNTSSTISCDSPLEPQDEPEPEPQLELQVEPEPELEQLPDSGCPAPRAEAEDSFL
# Experimental: (§1) Cells used were tumor cell lines naturally expressing high levels of EGFR (A431), VEGFR-2 (U251), and PDGFR-β (SH-SYSY). […] The reaction was stopped and cells were permeabilized by quickly removing the media from the cells and adding ice-cold Tris-buffered saline (TBS) containing 0.05% Triton X-100, protease inhibitor cocktail and tyrosine phosphatase inhibitor cocktail. The TBS solution was then removed and cells fixed to the plate for 30 min at 60° C. and further incubation in 70% ethanol for an additional 30 min. Cells were further exposed to block (TBS with 1% BSA) for 1 h, washed, and then a horseradish peroxidase (HRP)-conjugated phosphotyrosine (PY) antibody was added overnight.
# VEGFR-2 = VEGFR-2 (Homo sapiens (Human), UniProt P35968); assay: VEGFR-2 kinase inhibition, phosphotyrosine ELISA cytoblot; assay type: cell-based; conditions: U251 cells, phosphotyrosine ELISA
# Chain of VEGFR-2 (P35968 20-1356): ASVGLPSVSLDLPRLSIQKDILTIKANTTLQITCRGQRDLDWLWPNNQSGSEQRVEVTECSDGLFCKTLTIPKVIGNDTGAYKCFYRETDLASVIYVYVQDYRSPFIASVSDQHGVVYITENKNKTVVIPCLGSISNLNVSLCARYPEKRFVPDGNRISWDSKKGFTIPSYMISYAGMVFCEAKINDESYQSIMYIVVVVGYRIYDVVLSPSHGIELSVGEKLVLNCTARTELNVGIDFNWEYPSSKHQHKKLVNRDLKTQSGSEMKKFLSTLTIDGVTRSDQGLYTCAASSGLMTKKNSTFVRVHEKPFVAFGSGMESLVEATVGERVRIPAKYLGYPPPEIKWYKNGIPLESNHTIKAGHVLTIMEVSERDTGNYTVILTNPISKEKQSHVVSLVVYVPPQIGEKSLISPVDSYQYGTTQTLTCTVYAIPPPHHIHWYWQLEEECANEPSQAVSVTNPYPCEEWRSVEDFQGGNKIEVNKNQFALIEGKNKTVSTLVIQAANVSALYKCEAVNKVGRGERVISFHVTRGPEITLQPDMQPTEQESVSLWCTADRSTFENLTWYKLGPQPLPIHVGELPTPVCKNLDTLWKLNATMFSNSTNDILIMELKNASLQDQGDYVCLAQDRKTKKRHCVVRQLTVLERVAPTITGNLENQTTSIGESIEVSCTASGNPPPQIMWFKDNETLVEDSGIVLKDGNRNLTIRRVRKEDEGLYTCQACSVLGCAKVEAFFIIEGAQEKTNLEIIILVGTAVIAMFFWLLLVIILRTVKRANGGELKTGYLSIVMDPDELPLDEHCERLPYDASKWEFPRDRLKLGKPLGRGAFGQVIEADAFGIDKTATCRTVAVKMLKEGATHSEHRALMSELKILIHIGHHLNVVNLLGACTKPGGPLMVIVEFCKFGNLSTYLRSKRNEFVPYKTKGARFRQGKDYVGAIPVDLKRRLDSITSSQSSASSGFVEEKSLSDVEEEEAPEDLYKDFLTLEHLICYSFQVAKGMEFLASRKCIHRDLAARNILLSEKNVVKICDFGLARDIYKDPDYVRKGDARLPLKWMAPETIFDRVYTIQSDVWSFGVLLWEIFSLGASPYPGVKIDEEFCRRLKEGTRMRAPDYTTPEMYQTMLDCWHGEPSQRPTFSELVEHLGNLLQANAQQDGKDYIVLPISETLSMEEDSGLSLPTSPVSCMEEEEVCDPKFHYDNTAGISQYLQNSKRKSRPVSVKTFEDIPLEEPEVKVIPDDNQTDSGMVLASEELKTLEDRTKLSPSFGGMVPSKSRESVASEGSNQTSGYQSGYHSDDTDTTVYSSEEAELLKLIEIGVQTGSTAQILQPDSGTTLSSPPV
# Experimental: as §1
# EGFR = EGFR (Homo sapiens (Human), UniProt P00533); assay: EGFR kinase inhibition, phosphotyrosine ELISA cytoblot; assay type: cell-based; conditions: A431 cells
# Chain of EGFR (P00533 25-1210): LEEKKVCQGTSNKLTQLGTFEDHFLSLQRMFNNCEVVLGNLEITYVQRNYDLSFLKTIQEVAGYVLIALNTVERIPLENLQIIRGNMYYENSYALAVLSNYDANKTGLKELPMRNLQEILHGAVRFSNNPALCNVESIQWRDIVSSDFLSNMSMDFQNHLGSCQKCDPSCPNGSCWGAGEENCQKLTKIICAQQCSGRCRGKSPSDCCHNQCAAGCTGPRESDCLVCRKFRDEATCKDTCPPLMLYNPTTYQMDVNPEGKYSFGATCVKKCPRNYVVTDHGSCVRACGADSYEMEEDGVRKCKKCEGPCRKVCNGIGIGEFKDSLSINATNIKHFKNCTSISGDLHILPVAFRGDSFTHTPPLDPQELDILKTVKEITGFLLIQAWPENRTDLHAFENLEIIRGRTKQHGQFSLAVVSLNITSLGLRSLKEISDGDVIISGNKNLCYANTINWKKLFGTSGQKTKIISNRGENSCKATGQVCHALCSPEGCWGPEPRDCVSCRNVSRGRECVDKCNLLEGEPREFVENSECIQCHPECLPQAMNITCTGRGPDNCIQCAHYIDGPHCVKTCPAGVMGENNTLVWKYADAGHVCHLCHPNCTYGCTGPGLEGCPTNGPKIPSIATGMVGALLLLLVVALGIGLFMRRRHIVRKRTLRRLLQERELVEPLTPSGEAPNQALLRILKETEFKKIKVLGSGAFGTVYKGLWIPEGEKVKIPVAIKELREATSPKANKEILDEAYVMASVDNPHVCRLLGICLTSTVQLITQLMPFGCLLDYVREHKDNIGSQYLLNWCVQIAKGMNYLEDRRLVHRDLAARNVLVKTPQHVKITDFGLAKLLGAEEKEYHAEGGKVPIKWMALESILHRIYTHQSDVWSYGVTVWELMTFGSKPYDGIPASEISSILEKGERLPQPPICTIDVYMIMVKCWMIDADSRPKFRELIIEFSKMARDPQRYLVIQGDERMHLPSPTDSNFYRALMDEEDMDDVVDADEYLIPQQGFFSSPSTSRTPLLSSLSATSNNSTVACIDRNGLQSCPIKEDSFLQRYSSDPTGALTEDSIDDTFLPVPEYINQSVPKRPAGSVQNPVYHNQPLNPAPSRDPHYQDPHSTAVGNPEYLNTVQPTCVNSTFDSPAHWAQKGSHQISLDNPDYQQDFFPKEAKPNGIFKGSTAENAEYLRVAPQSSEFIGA
# Experimental: as §1
# MCF7 = assay: NCI 60 cell line panel; assay type: cell-based; conditions: Homo sapiens, Breast Cancer
# BT-549 = assay: NCI 60 cell line panel; assay type: cell-based; conditions: Homo sapiens
# DU-145 = assay: NCI 60 cell line panel; assay type: cell-based; conditions: Homo sapiens, Prostate Cancer
# ACHN = assay: NCI 60 cell line panel; assay type: cell-based; conditions: Homo sapiens, Renal Cancer
# MDA-MB-468 = assay: NCI 60 cell line panel; assay type: cell-based; conditions: Homo sapiens, Breast Cancer
# KM12 = assay: NCI 60 cell line panel; assay type: cell-based; conditions: Homo sapiens, Colon Cancer
# NCI-H460 = assay: NCI 60 cell line panel; assay type: cell-based; conditions: Homo sapiens, NSCLC
# OVCAR-5 = assay: NCI 60 cell line panel; assay type: cell-based; conditions: Homo sapiens, Ovarian cancer
# SF-268 = assay: NCI 60 cell line panel; assay type: cell-based; conditions: Homo sapiens, CNS Cancer
# SK-MEL-2 = assay: NCI 60 cell line panel; assay type: cell-based; conditions: Homo sapiens
# SNB-75 = assay: NCI 60 cell line panel; assay type: cell-based; conditions: Homo sapiens, CNS Cancer
# OVCAR-3 = assay: NCI 60 cell line panel; assay type: cell-based; conditions: Homo sapiens, Ovarian cancer
# SF-295 = assay: NCI 60 cell line panel; assay type: cell-based; conditions: Homo sapiens, CNS Cancer
# LOX IMVI = assay: NCI 60 cell line panel; assay type: cell-based; conditions: Homo sapiens, Melanoma
# PC-3 = assay: NCI 60 cell line panel; assay type: cell-based; conditions: Homo sapiens, Prostate Cancer
# CCRF-CEM = assay: NCI 60 cell line panel; assay type: cell-based; conditions: Homo sapiens, Leukemia
# OVCAR-4 = assay: NCI 60 cell line panel; assay type: cell-based; conditions: Homo sapiens, Ovarian cancer
# HCT-15 = assay: NCI 60 cell line panel; assay type: cell-based; conditions: Homo sapiens, Colon Cancer
# UACC-62 = assay: NCI 60 cell line panel; assay type: cell-based; conditions: Homo sapiens, Melanoma
# MDA-MB-435 = assay: NCI 60 cell line panel; assay type: cell-based; conditions: Homo sapiens, Melanoma
# EKVX = assay: NCI 60 cell line panel; assay type: cell-based; conditions: Homo sapiens, NSCLC
# K-562 = assay: NCI 60 cell line panel; assay type: cell-based; conditions: Homo sapiens, K562, Leukemia
# NCI/ADR-RES = assay: NCI 60 cell line panel; assay type: cell-based; conditions: Homo sapiens, Ovarian cancer
# M14 = assay: NCI 60 cell line panel; assay type: cell-based; conditions: Homo sapiens, Melanoma
# SR = assay: NCI 60 cell line panel; assay type: cell-based; conditions: Homo sapiens, Leukemia
# SF-539 = assay: NCI 60 cell line panel; assay type: cell-based; conditions: Homo sapiens, CNS Cancer
# [3] = tested on: WTβ3 cells (HeLa overexpressing βIII tubulin); assay: Antiproliferative SRB assay; assay type: cell-based; conditions: for IC50: SRB, 48 h, read-out: IC50 ± SD in WTβ3
# SNB-19 = assay: NCI 60 cell line panel; assay type: cell-based; conditions: Homo sapiens, CNS Cancer
# OVCAR-8 = assay: NCI 60 cell line panel; assay type: cell-based; conditions: Homo sapiens, Ovarian cancer
# TK-10 = assay: NCI 60 cell line panel; assay type: cell-based; conditions: Homo sapiens, Renal Cancer
# HeLa cells = assay: Antiproliferative SRB assay; assay type: cell-based; conditions: 48 h, read-out: IC50 ± SD in HeLa
# IGROV1 = assay: NCI 60 cell line panel; assay type: cell-based; conditions: Homo sapiens, IGROV-1, Ovarian cancer
# RXF 393 = assay: NCI 60 cell line panel; assay type: cell-based; conditions: Homo sapiens, Renal Cancer
# MDA-MB-231/ATCC = assay: NCI 60 cell line panel; assay type: cell-based; conditions: Homo sapiens, Breast Cancer
# HL-60(TB) = assay: NCI 60 cell line panel; assay type: cell-based; conditions: Homo sapiens, Leukemia
# SK-OV-3 = assay: NCI 60 cell line panel; assay type: cell-based; conditions: Homo sapiens, Ovarian cancer
# HOP-62 = assay: NCI 60 cell line panel; assay type: cell-based; conditions: Homo sapiens, NSCLC
# SW-620 = assay: NCI 60 cell line panel; assay type: cell-based; conditions: Homo sapiens, Colon Cancer
# NCI-H23 = assay: NCI 60 cell line panel; assay type: cell-based; conditions: Homo sapiens, NSCLC
# CAKI-1 = assay: NCI 60 cell line panel; assay type: cell-based; conditions: Homo sapiens, Renal Cancer
# COLO 205 = assay: NCI 60 cell line panel; assay type: cell-based; conditions: Homo sapiens, Colon Cancer
# HT29 = assay: NCI 60 cell line panel; assay type: cell-based; conditions: Homo sapiens, HT-29, Colon Cancer
# MOLT-4 = assay: NCI 60 cell line panel; assay type: cell-based; conditions: Homo sapiens, Leukemia
# HCT-116 = assay: NCI 60 cell line panel; assay type: cell-based; conditions: Homo sapiens, Colon Cancer
# U251 = assay: NCI 60 cell line panel; assay type: cell-based; conditions: Homo sapiens, U-251, CNS Cancer
# MDA-435 cells = assay: Antiproliferative SRB assay; assay type: cell-based; conditions: read-out: IC50 ± SD in MDA-435 cells
# [4] = tested on: M6/6 cells (SK-OV-3 expressing Pgp); assay: Antiproliferative SRB assay
# NCI-H522 = assay: NCI 60 cell line panel; assay type: cell-based; conditions: Homo sapiens, NSCLC
# HOP-92 = assay: NCI 60 cell line panel; assay type: cell-based; conditions: Homo sapiens, NSCLC
# SKOV3 cells = assay: Antiproliferative SRB assay; assay type: cell-based; conditions: read-out: IC50 ± SD in SKOV3 cells
# SN 12C = assay: NCI 60 cell line panel; assay type: cell-based; conditions: Homo sapiens, SN12C, Renal Cancer
# SK-MEL-5 = assay: NCI 60 cell line panel; assay type: cell-based; conditions: Homo sapiens, Melanoma
# HS 578T = assay: NCI 60 cell line panel; assay type: cell-based; conditions: Homo sapiens, Breast Cancer
# 786-0 = assay: NCI 60 cell line panel; assay type: cell-based; conditions: Homo sapiens
# purified tubulin = assay: Inhibition of tubulin assembly; assay type: biochemical; conditions: read-out: Inhibition tubulin assembly IC50 ± SD
# [5] = tested on: colchicine site on tubulin; assay: Inhibition of [3H]colchicine binding; conditions: 5 μM
smiles,measurement,setting,value
"COc1cc(N(C)c2nc(C)nc3oc(C)cc23)cc(OC)c1OC [Compound 4, N,2,6-trimethyl-N-(3,4,5-trimethoxyphenyl)furo[2,3-d]pyrimidin-4-amine]",IC50,[1],> 300 µM
same,EC50,"[2]; Rattus norvegicus, A10",> 10 µM
same,IC50,A431 cancer cells,> 0.3 µM
same,IC50,PDGFR-β,0.166 ± 0.0202 µM
"CCOc1ccc(N(C)c2nc(C)nc3oc(C)cc23)cc1 [Compound 11, N-(4-ethoxyphenyl)-N,2,6-trimethylfuro[2,3-d]pyrimidin-4-amine]",IC50,[1],50.1 ± 8.2 µM
same,EC50,"[2]; Rattus norvegicus, A10",> 10 µM
same,IC50,A431 cancer cells,0.0116 ± 0.0021 µM
"COc1ccc(N(C)c2nc(C)nc3oc(C)cc23)cc1OC [Compound 3, N-(3,4-dimethoxyphenyl)-N,2,6-trimethylfuro[2,3-d]pyrimidin-4-amine]",IC50,VEGFR-2,0.0186 ± 0.003 µM
same,effect on cellular microtubules,[2],dose-dependent loss of cellular microtubules
same,IC50,EGFR,0.0903 ± 0.0102 µM
same,IC50,A431 cancer cells,0.0097 ± 0.0012 µM
same,IC50,PDGFR-β,0.0661 ± 0.0081 µM
"Cc1nc(N(C)c2ccc3c(c2)CCO3)c2cc(C)oc2n1 [Compound 6, N-(2,3-dihydro-1-benzofuran-5-yl)-N,2,6-trimethylfuro[2,3-d]pyrimidin-4-amine]",GI50,MCF7,0.0402 µM
same,GI50,BT-549,0.0772 µM
same,GI50,DU-145,0.0441 µM
same,GI50,ACHN,0.0642 µM
same,GI50,MDA-MB-468,0.0221 µM
same,GI50,KM12,0.0401 µM
same,GI50,NCI-H460,0.042 µM
same,GI50,OVCAR-5,0.262 µM
same,GI50,SF-268,0.0139 µM
same,IC50,VEGFR-2,0.0067 ± 0.00081 µM
same,GI50,SK-MEL-2,0.0264 µM
same,GI50,SNB-75,0.0304 µM
same,GI50,OVCAR-3,0.0245 µM
same,GI50,SF-295,0.0305 µM
same,GI50,LOX IMVI,0.0456 µM
same,GI50,PC-3,0.0522 µM
same,GI50,CCRF-CEM,0.0581 µM
same,GI50,OVCAR-4,0.0834 µM
same,GI50,HCT-15,0.0389 µM
same,GI50,UACC-62,0.0613 µM
same,GI50,MDA-MB-435,0.014 µM
same,GI50,EKVX,0.07 µM
same,GI50,K-562,0.0317 µM
same,GI50,NCI/ADR-RES,0.0265 µM
same,GI50,M14,0.0348 µM
same,GI50,SR,0.0366 µM
same,GI50,SF-539,0.0316 µM
same,IC50,"[3]; Homo sapiens, HeLa",0.094 ± 0.007 µM
same,Rr value (relative resistance),[3]; WTβ3 vs HeLa,0.9
same,GI50,SNB-19,0.0565 µM
same,GI50,OVCAR-8,0.063 µM
same,GI50,TK-10,0.0502 µM
same,IC50,"HeLa cells; Homo sapiens, HeLa",0.105 ± 0.0058 µM
same,GI50,IGROV1,0.0629 µM
same,effect on cellular microtubules,[2],dose-dependent loss of cellular microtubules
same,GI50,RXF 393,0.0212 µM
same,GI50,MDA-MB-231/ATCC,0.148 µM
same,GI50,HL-60(TB),0.0276 µM
same,GI50,SK-OV-3,0.0376 µM
same,GI50,HOP-62,0.0396 µM
same,GI50,SW-620,0.0416 µM
same,GI50,NCI-H23,0.0439 µM
same,GI50,CAKI-1,0.0401 µM
same,GI50,COLO 205,0.0403 µM
same,GI50,HT29,0.0324 µM
same,IC50,EGFR,0.226 ± 0.0502 µM
same,GI50,MOLT-4,0.0767 µM
same,GI50,HCT-116,0.0451 µM
same,IC50,A431 cancer cells,0.0383 ± 0.0042 µM
same,GI50,U251,0.0397 µM
same,IC50,"MDA-435 cells; MDA435, 48 h",0.0962 ± 0.013 µM
same,Rr value (relative resistance),[4]; M6/6 (Pgp) vs SKOV3,1.3
same,GI50,NCI-H522,0.0129 µM
same,GI50,HOP-92,0.0458 µM
same,IC50,"SKOV3 cells; Homo sapiens, SK-OV-3, 48 h",0.12 ± 0.005 µM
same,GI50,SN 12C,0.0972 µM
same,GI50,SK-MEL-5,0.0314 µM
same,GI50,HS 578T,0.031 µM
same,GI50,786-0,0.0804 µM
"COc1ccc(N(C)c2nc(C)nc3oc(C)cc23)c(OC)c1 [Compound 2, N-(2,4-dimethoxyphenyl)-N,2,6-trimethylfuro[2,3-d]pyrimidin-4-amine]",IC50,A431 cancer cells,0.0171 ± 0.002 µM
"COc1ccc(/C=C\c2cc(OC)c(OC)c(OC)c2)cc1O [CA-4, combretastatin A-4, reference compound]",IC50,purified tubulin,1 ± 0.09 µM
same,IC50,[3],0.0057 ± 0.0004 µM
same,IC50,HeLa cells,0.0056 ± 0.0003 µM
same,EC50,[2],0.0098 µM
same,IC50,MDA-435 cells; 48 h,0.005 ± 0.0003 µM
same,IC50,"[4]; read-out: IC50 ± SD in M6/6 cells, SRB, 48 h",0.003 ± 0.0003 µM
same,Inhibition of colchicine binding % inhibition ± SD,[5],99 ± 0.2%
same,IC50,SKOV3 cells; 48 h,0.0069 ± 0.0001 µM
